Series [1] is described as follows: Human cadaver skin permeation (flux) study, modified Franz diffusion cells. The class given is in vitro ADME. The conditions noted are these: for flux of a dermal composition: carrier composition of Example 2, different cadaver skin, FIG. 1; for flux through skin (in words): enalapril ethyl ester prodrug compared with enalapril maleate form. The method, then: (§1) Human cadaver skin permeation studies were performed to quantitatively determine the effective permeation of enalapril ethyl ester through the stratum corneum. The stratum corneum was obtained from split thickness, cryo-preserved cadaver skin by the heat separation technique (˜55°). Samples of 5/16″ diameter were cut from the laminate, in triplicate, and mounted onto ½″ cut pieces of the stratum corneum. These samples were then placed on modified Franz diffusion cells. The receptor was filled with 7.5 mL of 0.9% NaCl and 0.01% NaN3 in deionized water. The cells were maintained at a constant 32° C. and were magnetically stirred at approximately 300 rpm. At specified time points, samples of the receptor phase were taken with complete replacement of the receptor phase. These samples were quantified by high-performance liquid chromatography (HPLC) utilizing Waters HPLC instrumentation. C-8(15 cm×4.6 mm) 5 μm particle size columns ([…] made by MetaChem Technologies, Inc.; Torrance, Calif.) were used at 50° C. (column temperature). The mobile phase contained 50% acetonitrile: 50% buffer (10 mM KH2PO4, pH=2.7). The detection wavelength was 214 nm. HPLC flow rate is 1.5 mL/min.

Series [2] concerns esterase enzyme in the skin. In words: Hydrolysis of penetrated prodrug in the skin after permeation. The class given is in vitro ADME, Human. The method, then:
as §1
More than 50% of the penetrated enalapril ethyl ester was hydrolyzed into enalaprilat after permeation through the skin.

SMILES strings stand for the structures. Counter-ions that a name gives are not always drawn.

`CCOC(=O)[C@H](CCc1ccccc1)N[C@@H](C)C(=O)N1CCC[C@H]1C(=O)OCC` [enalapril ethyl ester]: in series [1], the flux of a dermal composition stood at 4.8 µg/cm²/h and the “flux through skin (in words)” value is reported as “significantly greater”. Besides, the “penetrated enalapril ethyl ester hydrolyzed into enalaprilat” value in series [2] (after permeation through the skin) is “More than 50%”. In addition, the “hydrolysis of the ethyl ester group on the proline moiety” value in series [2] (by an esterase enzyme in the skin) is on record as “selectively hydrolyzed”.
On to `CCOC(=O)[C@H](CCc1ccccc1)N[C@@H](C)C(=O)N1CCC[C@H]1C(=O)O` [enalapril maleate, reference compound], for which, in series [1], the “flux of a dermal composition” value came to 0.2 μg/cm^2/sec and the “flux through skin (in words)” value is on record as “negligible”.

The values above are taken from US6805878B2, “Transdermal administration of ACE inhibitors” (Noven Pharmaceuticals, Inc., priority 2001, dated 2004).
